Patent US20230233650A1, “NOVEL FATTY ACID MODIFIED UROCORTIN 2 DERIVATIVES AND THE USES THEREOF” (Novo Nordisk A/S, priority 2021, published 2023)
Like-named read-outs stand apart in the source and are kept apart here. Numbered stars: 1 amine (or outer) side, 2 acyl side, 3 side chain; on linkers, the order of the positions; unused ones are H or OH. Side chains are listed from the residue outwards. Ends that are not written are not given here. Peptide text beside a SMILES is read from it. * marks the point of attachment. C20 diacid = O=C(O)CCCCCCCCCCCCCCCCCCC(=O)*; γGlu = O=C(O)[C@H](CCC(=O)[*:2])N[*:1]; AEEA = NCCOCCOCC(=O)O

Key:
Human CRF1 receptor = target: T1, Human CRF1 receptor (Homo sapiens, UniProt P34998); test: CRF1 receptor binding, scintillation proximity assay (SPA); settings: displacement of [125I]-Sauvagine, CHO-K1 cell membranes
T1 construct: host or cells: CHO-K1 (membrane preparation)
T1 sequence (P34998 24-415): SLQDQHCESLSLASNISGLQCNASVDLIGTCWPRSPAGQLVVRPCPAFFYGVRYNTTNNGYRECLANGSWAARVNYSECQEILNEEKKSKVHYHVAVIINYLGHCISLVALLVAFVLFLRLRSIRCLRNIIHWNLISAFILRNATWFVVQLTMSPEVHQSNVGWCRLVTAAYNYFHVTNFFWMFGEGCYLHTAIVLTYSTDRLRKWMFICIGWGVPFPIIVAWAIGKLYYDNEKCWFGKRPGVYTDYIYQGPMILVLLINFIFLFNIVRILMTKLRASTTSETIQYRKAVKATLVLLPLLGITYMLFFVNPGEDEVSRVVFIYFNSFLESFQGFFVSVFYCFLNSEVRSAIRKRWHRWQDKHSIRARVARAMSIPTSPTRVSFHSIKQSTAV
Experimental: (§1) The purpose of this example was to test the in vitro binding of the compounds of the invention to receptor subtypes CRF1 and CRF2. The in vitro binding of the compounds was determined in a scintillation proximity assay (SPA) as described below. The native, human Ucn1 and Ucn2 peptides are included as references. Scintillation Proximity Assay: […] Both cell lines were cultured at 37° C. in a humidified atmosphere with 5% CO2. […] Membranes were prepared by the following protocol: cultured cells were washed twice with cold Dulbecco’s phosphate buffered saline and detached using TrypLE™ (ThermoFisher) and transferred to tubes and centrifuged for 5 minutes at 1000 g at +4° C. Pellets were resuspended in ice cold homogenization buffer (20 mM Hepes pH 7.1, 5 mM MgCl2, 1 mg/ml Bacitracin with 2 complete EDTA-free protease inhibitor cocktail tablets/50 ml (Roche)) and then homogenized for 30 seconds using a Ultra-Turrax T25 tissue homogenizer (IKA) at medium speed. The homogenate was centrifuged at 35,000 g for 15 minutes at +4° C. using an ultracentrifuge, and the supernatant was discarded, and fresh homogenization buffer was added. Homogenization of the pellet was repeated a total of three times. The final pellet was resuspended in a few millilitres of homogenization buffer and protein concentration was determined using the Bradford method. The membrane preparation was transferred to cryotubes, and the aliquots were stored at -80° C. Each membrane preparation was subsequently titrated to give an appropriate window in the assay. Test procedure: […] Plates were sealed and incubated at 25° C. for 2 hours in a plate shaker set at 400 rpm and thereafter centrifuged at 1500 rpm for 10 minutes. SPA plates were let to stand at room temperature for about 16 hours prior to reading on microplate scintillation counter. Displacement of radioligand was measured as reduction in luminescence, and IC50 values were calculated by nonlinear regression analysis of four parameter sigmoidal dose-response curves.

Human CRF2 receptor = target: T2, Human CRF2 receptor (Homo sapiens, UniProt Q13324); test: CRF2 receptor binding, scintillation proximity assay (SPA); settings: displacement of [125I]-Sauvagine, CHO-K1 cell membranes
T2 construct: host or cells: CHO-K1 (membrane preparation)
T2 sequence (Q13324 1-411): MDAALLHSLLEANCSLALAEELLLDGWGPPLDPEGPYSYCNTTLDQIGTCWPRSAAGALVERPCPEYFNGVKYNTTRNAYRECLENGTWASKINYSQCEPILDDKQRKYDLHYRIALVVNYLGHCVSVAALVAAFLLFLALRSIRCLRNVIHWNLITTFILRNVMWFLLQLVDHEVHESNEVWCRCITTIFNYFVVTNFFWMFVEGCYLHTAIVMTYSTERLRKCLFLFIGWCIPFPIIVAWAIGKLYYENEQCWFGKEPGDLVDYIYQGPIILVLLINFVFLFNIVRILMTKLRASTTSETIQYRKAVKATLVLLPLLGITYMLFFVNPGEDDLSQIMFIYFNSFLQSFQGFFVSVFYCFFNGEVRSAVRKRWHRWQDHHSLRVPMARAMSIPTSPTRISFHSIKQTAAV
Experimental: as §1

[1] = Physical stability of liquid formulation (visible particles, turbidity); type: physicochemical; settings: 8 mM sodium phosphate; for Particle formation onset: pH 7.4, 31-37 mg/mL (Compound 7: 21 mg/mL), 37° C., 2 weeks, daily rotation
Experimental: The purpose of the study was to evaluate the physical stability of a liquid pharmaceutical formulation comprising test compound. The physical stability was determined as the formation of visible particles and the change in turbidity over time.
Test procedures: Test compound was dissolved in 8 mM sodium phosphate, pH 7.4 to a concentration of 31-37 mg/mL in vials (except for Compound 7 which was dissolved to a concentration of 21 mg/mL and Compound 5 which was not soluble at concentrations of ≥20 mg/mL). The vials were incubated at 37° C. for 2 weeks. Every day the vials were rotated end-to-end for 1 minute, 30 rounds. Every second day the vials were placed in front of a black background with strong LED light (Schott light source, KL2500) illuminating from below and a picture for analysis was taken.
Analysis: “Average pixel intensity” is a measure of turbidity of a liquid solution. It was measured by taking the average pixel intensity, ranging from 0 (black) to 255 (white), in a small square of a digital image of the glass vials containing a liquid solution and results are reported in FIG. 1. “Particle density” is a measure of visible particles in a liquid solution. It was measured by counting the number of visible particles in a region of a digital image of the glass vial containing a liquid solution and dividing with the area of the region and the results are reported in FIG. 2.

[2] = for Average purity loss per week: 8 mM sodium phosphate buffer pH 7.4, 0.7-1.1 mM, 37° C., 0-4 weeks, UPLC
Excerpt: The purpose of the study was to evaluate the chemical stability of a liquid pharmaceutical formulation comprising test compound. The chemical stability was be determined by measuring test compound purity loss (i.e. reduction of test compound relative to other species in the sample) over time using ultra-performance liquid chromatography (UPLC) coupled to an ultra-violet detector operated in reversed-phase mode.
Equipment and analysis conditions: Acquity UPLC I-Class instrument (Waters, Milford, US) together with either an Acquity UPLC CSH Fluorophenyl column (PN. 186005353 from Waters, Milford, US) or an Acquity Premier CSH column (PN. 186009462 from Waters, Milford, US), both having the dimensions 150 × 2.1 mm, particle diameter 1.7 µm and kept at 30° C., was used for the test. Mobile phase A was 0.1% vol/vol trifluoroacetic acid in water and mobile phase B was 0.09% vol/vol trifluoroacetic acid in acetonitrile. The flow rate was 0.35 mL/min while elution was done with a linear gradient of 26% to 40% mobile phase B over 50 min for the UPLC Fluorophenyl column and 30% to 50% mobile phase B over 50 min for the Premier CSH column. Detection was performed at UV 214 nm with 2 µL of volume injected from each sample.
Samples were kept in glass vials for quiescent storage in a 37° C. incubation chamber and subjected to analysis after 0, 1, 2, 3 and 4 weeks. Samples were analysed using UPLC (as described above) with chromatogram peak area as a measure of test compound concentration. Purity was determined at each timepoint as the fraction, given in %, of test compound relative to other species present in the sample. The purity loss over time is the relative difference in % test compound between timepoints and it is reported in Table 7 as the average from the five timepoints.

In the case of CC[C@H](C)[C@H](NC(=O)[C@H](CCC(=O)O)NC(=O)[C@H](C)NC(=O)[C@H](CC(N)=O)NC(=O)[C@@H](NC(=O)[C@@H](NC(=O)[C@H](C)NC(=O)[C@H](CCC(N)=O)NC(=O)[C@H](CCC(=O)O)NC(=O)[C@H](CCCNC(=N)N)NC(=O)[C@H](C)NC(=O)[C@H](C)NC(=O)[C@H](CCCNC(=N)N)NC(=O)[C@H](C)NC(=O)[C@H](CCCNC(=N)N)NC(=O)[C@H](C)NC(=O)[C@H](CCC(N)=O)NC(=O)[C@H](CCC(=O)O)NC(=O)[C@H](CC(C)C)NC(=O)[C@H](CC(C)C)NC(=O)[C@@H](NC(=O)[C@H](CCC(N)=O)NC(=O)[C@H](CC(C)C)NC(=O)[C@H](CC(C)C)NC(=O)CNC(=O)[C@@H](NC(=O)[C@@H]1CCCN1C(=O)[C@@H](NC(=O)[C@H](CC(=O)O)NC(=O)[C@H](CC(C)C)NC(=O)[C@H](CO)NC(=O)[C@H](CC(C)C)NC(=O)[C@@H](NC(=O)[C@@H](NC(=O)[C@@H](N)CCCCNC(=O)COCCOCCNC(=O)COCCOCCNC(=O)CC[C@H](NC(=O)CC[C@H](NC(=O)CC[C@H](NC(=O)CCCCCCCCCCCCCCCCCCC(=O)O)C(=O)O)C(=O)O)C(=O)O)[C@@H](C)CC)C(C)C)C(C)C)[C@@H](C)CC)[C@@H](C)CC)[C@@H](C)O)[C@@H](C)O)C(=O)N[C@@H](CCC(=O)O)C(=O)N[C@@H](C)C(=O)N[C@@H](CCCNC(=N)N)C(=O)N[C@H](C(N)=O)C(C)C [Compound 10] (H-K([AEEA-AEEA-γGlu-γGlu-γGlu-C20 diacid])IVLSLDVPIGLLQILLEQARARAAREQATTNAEIEARV-NH2), the IC50 (Human CRF1 receptor) is reported as greater than 1000 nM and the IC50 (Human CRF2 receptor) is reported as 569 nM.

In the case of “N{ε}-[[[(4S)-4-carboxy-4-[[(4S)-4-carboxy-4-[[(4S)-4-carboxy-4-(19-carboxynonadecanoylamino)butanoyl]amino]butanoyl]amino]butanoyl]amino]ethoxy]ethoxy]a cetyl]amino]ethoxy]ethoxy]acetyl]Lys-[Glu33]-hUcn2 [Compound 6]”, the Particle formation onset [1] is reported as 1 days and the “Average purity loss per week” value [2] is reported as 0.90%.

With “N{ε}-[[[(4S)-4-carboxy-4-[[(4S)-4-carboxy-4-[[(4S)-4-carboxy-4-(19-carboxynonadecanoylamino)butanoyl]amino]butanoyl]amino]butanoyl]amino]ethoxy]ethoxy]a cetyl]amino]ethoxy]ethoxy]acetyl]Lys-[Glu36]-hUcn2 [Compound 7]” the Particle formation onset [1] was 7 days and the “Average purity loss per week” value [2] was 3.95%.

Work on “DNPSLSIDLTFHLLRTLLELARTQSQRERAEQNRIIFDSV-NH2 [Compound 1]” yielded an IC50 (Human CRF2 receptor) of 0.12 nM.

In the case of “N{ε}-[[[(4S)-4-carboxy-4-[[(4S)-4-carboxy-4-[[(4S)-4-carboxy-4-(19-carboxynonadecanoylamino)butanoyl]amino]butanoyl]amino]butanoyl]amino]ethoxy]ethoxy]a cetyl]amino]ethoxy]ethoxy]acetyl]Lys-hUcn2 [Compound 5]”, the “Solubility (not soluble at concentrations of)” value ([1]; pH 7.4) is reported as less than 20 mg/mL, the Particle formation onset [1] is reported as “Not soluble” and the “Average purity loss per week” value [2] is reported as “Not soluble”. For the same molecule, the “Solubility (not soluble at concentrations of)” value ([2]; pH 7.4) was less than 700 µM.

In the case of CC[C@H](C)[C@H](NC(=O)[C@H](CCC(=O)O)NC(=O)[C@H](C)NC(=O)[C@H](CC(N)=O)NC(=O)[C@@H](NC(=O)[C@@H](NC(=O)[C@H](C)NC(=O)[C@H](CCC(N)=O)NC(=O)[C@H](CCC(=O)O)NC(=O)[C@H](CCCNC(=N)N)NC(=O)[C@H](C)NC(=O)[C@H](C)NC(=O)[C@H](CCCNC(=N)N)NC(=O)[C@H](C)NC(=O)[C@H](CCCNC(=N)N)NC(=O)[C@H](C)NC(=O)[C@H](CCC(N)=O)NC(=O)[C@H](CCC(=O)O)NC(=O)[C@H](CC(C)C)NC(=O)[C@H](CC(C)C)NC(=O)[C@@H](NC(=O)[C@H](CCC(N)=O)NC(=O)[C@H](CC(C)C)NC(=O)[C@H](CC(C)C)NC(=O)CNC(=O)[C@@H](NC(=O)[C@@H]1CCCN1C(=O)[C@@H](NC(=O)[C@H](CC(=O)O)NC(=O)[C@H](CC(C)C)NC(=O)[C@H](CO)NC(=O)[C@H](CC(C)C)NC(=O)[C@@H](NC(=O)[C@@H](N)CCCCNC(=O)COCCOCCNC(=O)COCCOCCNC(=O)CC[C@H](NC(=O)CC[C@H](NC(=O)CC[C@H](NC(=O)CCCCCCCCCCCCCCCCCCC(=O)O)C(=O)O)C(=O)O)C(=O)O)C(C)C)C(C)C)[C@@H](C)CC)[C@@H](C)CC)[C@@H](C)O)[C@@H](C)O)C(=O)N[C@@H](CC(C)C)C(=O)N[C@@H](CCC(=O)O)C(=O)N[C@@H](CCCNC(=N)N)C(=O)N[C@H](C(N)=O)C(C)C [Compound 11] (H-K([AEEA-AEEA-γGlu-γGlu-γGlu-C20 diacid])VLSLDVPIGLLQILLEQARARAAREQATTNAEILERV-NH2), the IC50 (Human CRF1 receptor) is reported as greater than 1000 nM and the IC50 (Human CRF2 receptor) is reported as 196 nM.

CC[C@H](C)[C@H](NC(=O)[C@H](CCCNC(=N)N)NC(=O)[C@H](C)NC(=O)[C@H](CC(N)=O)NC(=O)[C@@H](NC(=O)[C@@H](NC(=O)[C@H](C)NC(=O)[C@H](CCC(N)=O)NC(=O)[C@H](CCC(=O)O)NC(=O)[C@H](CCCNC(=N)N)NC(=O)[C@H](C)NC(=O)[C@H](C)NC(=O)[C@H](CCCNC(=N)N)NC(=O)[C@H](C)NC(=O)[C@H](CCCNC(=N)N)NC(=O)[C@H](C)NC(=O)[C@H](CCC(N)=O)NC(=O)[C@H](CCC(=O)O)NC(=O)[C@H](CC(C)C)NC(=O)[C@H](CC(C)C)NC(=O)[C@@H](NC(=O)[C@H](CCC(N)=O)NC(=O)[C@H](CC(C)C)NC(=O)[C@H](CC(C)C)NC(=O)CNC(=O)[C@@H](NC(=O)[C@@H]1CCCN1C(=O)[C@@H](NC(=O)[C@H](CC(=O)O)NC(=O)[C@H](CC(C)C)NC(=O)[C@H](CO)NC(=O)[C@H](CC(C)C)NC(=O)[C@@H](NC(=O)[C@@H](NC(=O)[C@@H](N)CCCCNC(=O)COCCOCCNC(=O)COCCOCCNC(=O)CC[C@H](NC(=O)CC[C@H](NC(=O)CC[C@H](NC(=O)CCCCCCCCCCCCCCCCCCC(=O)O)C(=O)O)C(=O)O)C(=O)O)[C@@H](C)CC)C(C)C)C(C)C)[C@@H](C)CC)[C@@H](C)CC)[C@@H](C)O)[C@@H](C)O)C(=O)N[C@@H](CCC(=O)O)C(=O)N[C@@H](C)C(=O)N[C@@H](CCCNC(=N)N)C(=O)N[C@H](C(N)=O)C(C)C [Compound 9] (H-K([AEEA-AEEA-γGlu-γGlu-γGlu-C20 diacid])IVLSLDVPIGLLQILLEQARARAAREQATTNARIEARV-NH2) showed an IC50 (Human CRF1 receptor) greater than 1000 nM and an IC50 (Human CRF2 receptor) of 897 nM.

In the case of “N{ε}-[[[(4S)-4-carboxy-4-[[(4S)-4-carboxy-4-[[(4S)-4-carboxy-4-(19-carboxynonadecanoylamino)butanoyl]amino]butanoyl]amino]butanoyl]amino]ethoxy]ethoxy]a cetyl]amino]ethoxy]ethoxy]acetyl]Lys-[Glu37]-hUcn2 [Compound 8]”, the “Average purity loss per week” value [2] is reported as 2.43%.
